Laboratory results published in patent publication US6852337B2, “Carvedilol-galenics” (Roche Diagnostics GmbH, priority 1998, dated 2005).

Experiment: In-vitro dissolution rate, USP XXII paddle method, aqueous buffer pH 4.5
Format: physicochemical
From the text: In the case of drugs which cannot develop their action in the gastrointestinal zone itself, release from the drug form in the gastrointestinal tract and the subsequent resorption are the necessary condition for a therapeutic effect. Problems arise in this connection with those active substances which, because of their poor solubility or their low dissolution speed, attain so low a concentration in the gastrointestinal tract in the aqueous medium or because of obstructed release from the system of the other adjuvants, that the dissolution of the active substance is the step which determines the rate in connection with the resorption. […] The solubility and release rate are determined by standard methods, e.g. in accordance with the paddle method of USP XXII.
The in-vitro dissolution rates in this and the following examples were determined in accordance with USP XXII, paddle method in an aqueous buffer pH 4.5

In-vitro dissolution rate after 10 minutes [%] | In-vitro dissolution rate after 20 minutes [%] | In-vitro dissolution rate after 30 minutes [%] | In-vitro dissolution rate after 60 minutes [%] | Structure (SMILES)
31 | 43 | 50 | 58 | OC(COc1cccc2[nH]ccc12)CN1CCC(COc2ccccc2)CC1 (centres unmarked) [Active substance A, 4-[2-hydroxy-3-[4-(phenoxymethyl)piperidino]-propoxy]-indole]
36 | 46 | 49 | 56 | COc1ccccc1OCCNCC(O)COc1cccc2[nH]c3ccccc3c12 (centres unmarked) [Active substance B, carvedilol]
